According to patent publication US10597388B2, “Pyridazinone herbicides” (FMC CORPORATION, priority 2014, dated 2020):

How the values were obtained:
Assay in all cases: Test E greenhouse herbicide test, pre- and postemergence
Type in all cases: in vivo
[1] = tested on: horseweed (Conyza canadensis)
Outline: (§1)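 Seeds were sown in silt loam and sprayed preemergence with compound in a non-phytotoxic solvent mix containing surfactant; for postemergence, plants at 2 to 18 cm (1- to 4-leaf stage) in peat-based potting medium were sprayed with the same formulation. After 14 to 21 d in a greenhouse, injury was rated visually against controls (0–100).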

[2] = tested on: pigweed, palmer (palmer pigweed, Amaranthus palmeri)
Outline: as §1

[3] = tested on: lambsquarters (Chenopodium album); conditions: Preemergence
Outline: as §1

[4] = tested on: dayflower (Virginia (VA) dayflower, Commelina virginica)
Outline: as §1

[5] = tested on: foxtail, green (green foxtail, Setaria viridis); conditions: Preemergence
Outline: as §1

[6] = tested on: wild poinsettia (Euphorbia heterophylla)
Outline: as §1

[7] = tested on: Italian ryegrass (Lolium multiflorum)
Outline: as §1

[8] = 62 g ai/ha, Postemergence, scale 0 to 100 (0 no effect, 100 complete control)
[9] = 125 g ai/ha, Postemergence, scale 0 to 100 (0 no effect, 100 complete control)
[10] = 250 g ai/ha, Postemergence, scale 0 to 100 (0 no effect, 100 complete control)
[11] = Postemergence, 31 g ai/ha, visual, scale 0 no effect to 100 complete control
[12] = 62 g ai/ha, Preemergence, scale 0 to 100 (0 no effect, 100 complete control)
[13] = 125 g ai/ha, Preemergence, scale 0 to 100 (0 no effect, 100 complete control)
[14] = Preemergence, 31 g ai/ha, scale 0 to 100, 0 no effect, 100 complete control
[15] = Preemergence, 250 g ai/ha, visual, scale 0 no effect to 100 complete control
[16] = 62 g ai/ha, scale 0 to 100 (0 no effect, 100 complete control)
[17] = 31 g ai/ha, scale 0 to 100, 0 no effect, 100 complete control
[18] = 125 g ai/ha, visual, scale 0 no effect to 100 complete control
[19] = 250 g ai/ha, visual, scale 0 no effect to 100 complete control
[20] = 125 g ai/ha, scale 0 to 100 (0 no effect, 100 complete control)
[21] = Preemergence, 16 g ai/ha, scale 0 to 100, 0 no effect, 100 complete control
[22] = 16 g ai/ha, scale 0 to 100, 0 no effect, 100 complete control

`CCc1sc2c(C)cc(C)cc2c1-c1c(O)c(C)nn(C)c1=O` [Compound 57] was tested, and the “Plant response rating, Horseweed” value [1, 8] was 75, the “Plant response rating, Horseweed” value [1, 9] was 75 and the “Plant response rating, Horseweed” value [1, 10] was 80. For the same compound, the “Plant response rating, Horseweed” value [1, 11] was 60, the “Plant response rating, Pigweed, Palmer” value [2, 8] was 20 and the “Plant response rating, Pigweed, Palmer” value [2, 12] was 35. For the same compound, the “Plant response rating, Pigweed, Palmer” value [2, 9] was 30, the “Plant response rating, Pigweed, Palmer” value [2, 13] was 40 and the “Plant response rating, Pigweed, Palmer” value [2, 10] was 60. For the same compound, the “Plant response rating, Pigweed, Palmer” value [2, 11] was 10, the “Plant response rating, Pigweed, Palmer” value [2, 14] was 35 and the “Plant response rating, Pigweed, Palmer” value [2, 15] was 60. The “Plant response rating, Lambsquarters” value [3, 16] was 100, the “Plant response rating, Lambsquarters” value [3, 17] was 100 and the “Plant response rating, Lambsquarters” value [3, 18] was 100. For the same compound, the “Plant response rating, Lambsquarters” value [3, 19] was 100, the “Plant response rating, Dayflower, VA” value [4, 8] was 15 and the “Plant response rating, Dayflower, VA” value [4, 12] was 25. The “Plant response rating, Dayflower, VA” value [4, 9] was 35, the “Plant response rating, Dayflower, VA” value [4, 10] was 30 and the “Plant response rating, Dayflower, VA” value [4, 11] was 10. The “Plant response rating, Dayflower, VA” value [4, 14] was 0, the “Plant response rating, Dayflower, VA” value ([4]; Preemergence, 125 g ai/ha, visual, scale 0 no effect to 100 complete control) was 30 and the “Plant response rating, Dayflower, VA” value [4, 15] was 80. The “Plant response rating, Foxtail, Green” value [5, 16] was 20, the “Plant response rating, Foxtail, Green” value [5, 17] was 0 and the “Plant response rating, Foxtail, Green” value [5, 18] was 90. For the same compound, the “Plant response rating, Foxtail, Green” value [5, 19] was 100, the “Plant response rating, Poinsettia, Wild” value [6, 8] was 10 and the “Plant response rating, Poinsettia, Wild” value [6, 12] was 20. The “Plant response rating, Poinsettia, Wild” value [6, 9] was 30, the “Plant response rating, Poinsettia, Wild” value [6, 13] was 25 and the “Plant response rating, Poinsettia, Wild” value [6, 10] was 20. The “Plant response rating, Poinsettia, Wild” value [6, 11] was 10, the “Plant response rating, Poinsettia, Wild” value [6, 14] was 0 and the “Plant response rating, Poinsettia, Wild” value [6, 15] was 50. For the same compound, the “Plant response rating, Ryegrass, Italian” value [7, 8] was 0, the “Plant response rating, Ryegrass, Italian” value [7, 12] was 35 and the “Plant response rating, Ryegrass, Italian” value [7, 9] was 20. The “Plant response rating, Ryegrass, Italian” value [7, 13] was 65, the “Plant response rating, Ryegrass, Italian” value [7, 10] was 50 and the “Plant response rating, Ryegrass, Italian” value [7, 11] was 0. For the same compound, the “Plant response rating, Ryegrass, Italian” value [7, 14] was 10 and the “Plant response rating, Ryegrass, Italian” value [7, 15] was 80.

`Cc1ccc2sc(Br)c(-c3c(O)c(C)nn(C)c3=O)c2c1` [Compound 79] was tested, and the “Plant response rating, Horseweed” value [1, 8] was 95, the “Plant response rating, Horseweed” value [1, 12] was 100 and the “Plant response rating, Horseweed” value [1, 9] was 95. For the same compound, the “Plant response rating, Horseweed” value [1, 13] was 100, the “Plant response rating, Horseweed” value [1, 10] was 90 and the “Plant response rating, Horseweed” value [1, 11] was 90. The “Plant response rating, Horseweed” value [1, 14] was 100, the “Plant response rating, Horseweed” value [1, 15] was 100 and the “Plant response rating, Pigweed, Palmer” value [2, 8] was 35. The “Plant response rating, Pigweed, Palmer” value [2, 12] was 70, the “Plant response rating, Pigweed, Palmer” value [2, 9] was 40 and the “Plant response rating, Pigweed, Palmer” value [2, 13] was 70. For the same compound, the “Plant response rating, Pigweed, Palmer” value [2, 10] was 75, the “Plant response rating, Pigweed, Palmer” value [2, 11] was 40 and the “Plant response rating, Pigweed, Palmer” value [2, 14] was 75. For the same compound, the “Plant response rating, Pigweed, Palmer” value [2, 15] was 75, the “Plant response rating, Lambsquarters” value [3, 16] was 100 and the “Plant response rating, Lambsquarters” value [3, 20] was 100. For the same compound, the “Plant response rating, Lambsquarters” value [3, 17] was 100, the “Plant response rating, Lambsquarters” value [3, 19] was 100 and the “Plant response rating, Dayflower, VA” value [4, 8] was 50. For the same compound, the “Plant response rating, Dayflower, VA” value [4, 12] was 70, the “Plant response rating, Dayflower, VA” value [4, 9] was 60 and the “Plant response rating, Dayflower, VA” value [4, 13] was 65. The “Plant response rating, Dayflower, VA” value [4, 10] was 65, the “Plant response rating, Dayflower, VA” value [4, 11] was 50 and the “Plant response rating, Dayflower, VA” value [4, 14] was 50. For the same compound, the “Plant response rating, Dayflower, VA” value [4, 15] was 70, the “Plant response rating, Foxtail, Green” value [5, 16] was 70 and the “Plant response rating, Foxtail, Green” value [5, 20] was 80. The “Plant response rating, Foxtail, Green” value [5, 17] was 55, the “Plant response rating, Foxtail, Green” value [5, 19] was 90 and the “Plant response rating, Poinsettia, Wild” value [6, 8] was 10. The “Plant response rating, Poinsettia, Wild” value [6, 12] was 60, the “Plant response rating, Poinsettia, Wild” value [6, 9] was 20 and the “Plant response rating, Poinsettia, Wild” value [6, 13] was 60. The “Plant response rating, Poinsettia, Wild” value [6, 10] was 10, the “Plant response rating, Poinsettia, Wild” value [6, 11] was 10 and the “Plant response rating, Poinsettia, Wild” value [6, 14] was 50. For the same compound, the “Plant response rating, Poinsettia, Wild” value [6, 15] was 55, the “Plant response rating, Ryegrass, Italian” value [7, 8] was 40 and the “Plant response rating, Ryegrass, Italian” value [7, 12] was 80. The “Plant response rating, Ryegrass, Italian” value [7, 9] was 70, the “Plant response rating, Ryegrass, Italian” value [7, 13] was 100 and the “Plant response rating, Ryegrass, Italian” value [7, 10] was 80. The “Plant response rating, Ryegrass, Italian” value [7, 11] was 30, the “Plant response rating, Ryegrass, Italian” value [7, 14] was 75 and the “Plant response rating, Ryegrass, Italian” value [7, 15] was 100.

For `COC(=O)Oc1c(C)nn(C)c(=O)c1-c1c(C)sc2ccc(C)cc12` [Compound 80], the “Plant response rating, Horseweed” value [1, 12] was 100, the “Plant response rating, Horseweed” value [1, 13] was 100 and the “Plant response rating, Horseweed” value [1, 21] was 100. The “Plant response rating, Horseweed” value [1, 14] was 100, the “Plant response rating, Pigweed, Palmer” value [2, 12] was 70 and the “Plant response rating, Pigweed, Palmer” value [2, 13] was 70. For the same compound, the “Plant response rating, Pigweed, Palmer” value [2, 21] was 20, the “Plant response rating, Pigweed, Palmer” value [2, 14] was 35 and the “Plant response rating, Lambsquarters” value [3, 16] was 98. The “Plant response rating, Lambsquarters” value [3, 20] was 100, the “Plant response rating, Lambsquarters” value [3, 22] was 65 and the “Plant response rating, Lambsquarters” value [3, 17] was 100. For the same compound, the “Plant response rating, Dayflower, VA” value [4, 12] was 0, the “Plant response rating, Dayflower, VA” value [4, 13] was 10 and the “Plant response rating, Dayflower, VA” value [4, 21] was 0. For the same compound, the “Plant response rating, Dayflower, VA” value [4, 14] was 0, the “Plant response rating, Foxtail, Green” value [5, 16] was 50 and the “Plant response rating, Foxtail, Green” value [5, 20] was 65. For the same compound, the “Plant response rating, Foxtail, Green” value [5, 22] was 0, the “Plant response rating, Foxtail, Green” value [5, 17] was 15 and the “Plant response rating, Poinsettia, Wild” value [6, 12] was 0. For the same compound, the “Plant response rating, Poinsettia, Wild” value [6, 13] was 40, the “Plant response rating, Poinsettia, Wild” value [6, 21] was 0 and the “Plant response rating, Poinsettia, Wild” value [6, 14] was 0. For the same compound, the “Plant response rating, Ryegrass, Italian” value [7, 12] was 98, the “Plant response rating, Ryegrass, Italian” value [7, 13] was 98 and the “Plant response rating, Ryegrass, Italian” value [7, 21] was 50. For the same compound, the “Plant response rating, Ryegrass, Italian” value [7, 14] was 70.
